Like-named read-outs stand apart in the source and are kept apart here.
Assays:
93R30B [1] = assay: Shoot culture herbicide resistance (shoot injury and fresh weight on M20 media); type: cell-based, Beta vulgaris L.; conditions: for R/S / IC50: 93R30B; for R/S: ratio of resistant to sensitive control (Rel-1) I50 values, shoot culture; for R/S / level of resistance: 30240 min; for IC50: herbicide concentration causing 50% injury to the shoot culture, 3 weeks, read-out: I50; for level of resistance: 93R30B in shoot culture
Description: (§1) In step 7, shoot cultures were assessed for herbicide resistance by placing three small, consistently sized shoot cuttings on each plate of M20 media supplemented with logarithmically increasing concentrations of imidazolinone herbicide, sulfonylurea or triazolopyrimidine sulfonanilide ranging from 1 nM to 0.1 mM. 93R30 culture responses were compared to that of shoot cultures of a sensitive control (Rel-1) and a chlorsulfuron resistant, imidazolinone sensitive control (EL-49). Shoot cultures were maintained at 20 µE/m^2 s light intensity at 25°C for 3 weeks. Shoot culture was determined by rating shoot injury and fresh weight 3 weeks after transfer to selective media. Magnitude of herbicide resistance was determined by the ratio of resistant to sensitive I50 values (the herbicide concentration causing 50 percent injury).

EL-49 = assay: as above; type: cell-based, Beta vulgaris L.; conditions: for IC50 / R/S: EL-49; for IC50: herbicide concentration causing 50% injury to the shoot culture, 3 weeks, read-out: I50; for R/S: ratio of resistant to sensitive control (Rel-1) I50 values, shoot culture
Description: as §1

Rel-1 [2] = assay: as above; type: cell-based, Beta vulgaris L.; conditions: Rel-1 sensitive control, herbicide concentration causing 50% injury to the shoot culture, 3 weeks, read-out: I50
Description: as §1

Rel-1 [3] = assay: Whole plant sugarbeet response to postemergence ALS-inhibiting herbicides; type: in vivo, Beta vulgaris L.; conditions: Rel-1 whole plant, herbicide applied postemergence
Sir-13 = assay: as above; type: in vivo, Beta vulgaris L.; conditions: for R/S: Sir-13 whole plant, postemergence, relative to Rel-1
Sur = assay: as above; type: in vivo, Beta vulgaris L.; conditions: for R/S: Sur whole plant, postemergence, relative to Rel-1
93R30B [4] = assay: as above; type: in vivo, Beta vulgaris L.; conditions: for R/S: 93R30B (SB) whole plant, postemergence, relative to Rel-1
ALS extracts from 93R30B = assay: ALS enzyme activity assay in leaf extracts (acetoin colorimetry); type: biochemical, Beta vulgaris L.; conditions: for resistance of the ALS enzyme: SB double mutant ALS enzyme in vitro
Description: Standard procedures were utilized to partially purify ALS from rapidly expanding leaves of greenhouse-grown sugar beet plants (Hart, et al. Weed Science 40:378-383 (1992)). Extracts from heterozygous 93R30B F1 plants and Rel-1 S1 seed were assayed for ALS activity in the presence of logarithmically increasing concentrations of imazethapyr. ALS activity was determined from leaf extracts of REL-1 and 93R30B sugarbeet lines. Plants were grown in the greenhouse as described above to the four to six leaf stage. ALS activity from fresh extracts was determined in the presence of imazethapyr and chlorsulfuron at logarithmically increasing concentrations. The methods and procedures used were modified from those outlined by Ray (Plant Physiol. 75:827-831 (1984)) and Shaner, et al. (Plant Physiol. 76:545-546 (1984)). Ten g of sugarbeet leaves were homogenized in 40 ml cold homogenization buffer (0.1 M K2HPO4, pH 7.5, 1 mM sodium pyruvate, 0.5 mM MgCl2, 0.5 mM thiamine pyrophosphate, 10 µM of flavin adenine dinucleotide, 10% by vol glycerol) plus 2.5 g polyvinylpolypyrolidone. The homogenate was filtered through eight layers of cheesecloth and centrifuged at 27,000 g for 20 minutes. The supernatant was removed and brought to 50% saturation with (NH4)2SO4. […]
(§2) ALS activity is measured by adding 0.2 ml of enzyme preparation (diluted 3:1 with resuspension buffer) to 1.3 ml of reaction buffer (25 mM K2HPO4, pH 7.0, 0.625 mM MgCl2, 25 mM sodium pyruvate, 0.625 mM thiamine pyrophosphate, 1.25 µM flavin adenine dinucleotide) and incubated at 35°C for 1 hour. […]
Purchased acetoin was used as a standard for the colorimetric reaction. Acetoin concentrations were determined by measuring the absorption of the reaction solution at 530 nm. […] Protein concentrations of the extracts was determined by the method of Bradford (Anal. Biochem. 72:248-254 (1976)) using bovine serum albumin for the standard curve. […]

ALS enzyme from Sur = assay: as above; type: biochemical, Beta vulgaris L.; conditions: Sur single mutant ALS enzyme in vitro
Description: Standard procedures were utilized to partially purify ALS from rapidly expanding leaves of greenhouse-grown sugar beet plants (Hart, et al. Weed Science 40:378-383 (1992)). Extracts from heterozygous 93R30B F1 plants and Rel-1 S1 seed were assayed for ALS activity in the presence of logarithmically increasing concentrations of imazethapyr. ALS activity was determined from leaf extracts of REL-1 and 93R30B sugarbeet lines. Plants were grown in the greenhouse as described above to the four to six leaf stage. ALS activity from fresh extracts was determined in the presence of imazethapyr and chlorsulfuron at logarithmically increasing concentrations. […]
as §2
Purchased acetoin was used as a standard for the colorimetric reaction. Acetoin concentrations were determined by measuring the absorption of the reaction solution at 530 nm. […] Protein concentrations of the extracts was determined by the method of Bradford (Anal. Biochem. 72:248-254 (1976)) using bovine serum albumin for the standard curve.

ALS enzyme from Sir-13 = assay: as above; type: biochemical, Beta vulgaris L.; conditions: Sir-13 single mutant ALS enzyme in vitro
sensitive cells = assay: Cell selection on herbicide-supplemented solid B1 media; type: cell-based, Beta vulgaris L.; conditions: 50 nM in solid B1 media, 8-12 weeks, dim fluorescent light
From the text: Rel-1 (Regenerating East Lansing-1) is a highly regenerable male fertile sugar beet line used for initial cell selection for herbicide-resistant mutant to the sulfonylureas and is used as a sensitive control for most experiments. CR1-B This sugar beet isolate was developed by plating Rel-1 cells on chlorsulfuron-containing media. This variant is sulfonylurea resistant with modest resistance to the triazolopyrimidine herbicide, flumetsulam, but no imidazolinone resistance. This variant has been described by Saunders et al. (Crop Sci. 32:1357-1360) and Hart et al. (Weed Sci. 40:378-383 and 41:317-324). The SU resistance gene has been labeled Sur. 93R30B This isolate was developed by plating cells of a highly regenerable, Sur homozygous sugar beet plant (descendant of CR1-B) on media containing imazethapyr. EL-49 East Lansing 49, released by the USDA in 1993. Sugar beet line homozygous for the Sur gene, used for a sulfonylurea-resistant, imazethapyr- sensitive control. • a. Plants were selected as source materials for somaclonal selection based on their ability to generate callus under high cytokinin conditions (in B1 media) and regenerate shoots from callus. […]

| Compound | R/S (93R30B [1]) [X] | IC50 (93R30B [1]; Beta vulgaris, 504 h) [nM] | IC50 (EL-49; Beta vulgaris, 504 h) [nM] | R/S (EL-49; 30240 min) [X] | IC50 (Rel-1 [2]; Beta vulgaris, 504 h) [nM] | I50 (Rel-1 [3]) [g ha^-1] | R/S (Sir-13) [X] | R/S (Sur) [X] | R/S (93R30B [4]) [X] | level of resistance (93R30B [1]) | also measured |
| --- | --- | --- | --- | --- | --- | --- | --- | --- | --- | --- | --- |
| COCc1cnc(C2=NC(C)(C(C)C)C(=O)N2)c(C(=O)O)c1 (stereo not drawn) [AC299,263] | 1400 | 40000 | 70 | 3 | 30 | 1.1 | 130 | 4 | >250 |  |  |
| COc1nc(C)nc(NC(=O)NS(=O)(=O)c2ccccc2Cl)n1 [Chlorsulfuron] | 10000 | 25000 | 25000 | 10000 | 2.5 | 0.07 | 1 | >1000 | 20 | 10,000 fold | R/S (Sur; listed as chlorsulfuron): > 1000 X; reduction of whole plant resistance of the SB double mutant (93R30B [4]; SB double mutant compared with Sur single mutant, whole plant): more than 50 fold |
| Cc1ccn2nc(S(=O)(=O)Nc3c(F)cccc3F)nc2n1 [Flumetsulam] | 60 | 1700 | 1100 | 40 | 28 |  |  |  |  | 60 fold | resistance of the ALS enzyme (ALS extracts from 93R30B): 200 X; resistance of the ALS enzyme (ALS enzyme from Sur): 50 X; resistance of the ALS enzyme (ALS enzyme from Sir-13): 3 X |
| CC(C)C1(C)N=C(c2nc3ccccc3cc2C(=O)O)NC1=O (stereo not drawn) [Imazaquin] | 400 | 16000 | 40 | 1 | 40 |  |  |  |  |  |  |
| CCc1cnc(C2=NC(C)(C(C)C)C(=O)N2)c(C(=O)O)c1 (stereo not drawn) [Imazethapyr] | 3600 | 64000 | 53 | 3 | 18 | 0.5 | 100 | 3 | 300 | 3600 fold | level of resistance (EL-49; EL-49 in shoot culture, 30240 min): 3 fold; resistance (Sir-13; Sir-13 single mutant, postemergence to whole plants): 100 fold; resistance (Sur; Sur single mutant, postemergence to whole plants): 3 fold; resistance (93R30B [4]; SB double mutant, postemergence to whole plants): 300 fold; resistance of the ALS enzyme (ALS extracts from 93R30B): > 1000 X; level of resistance at the enzyme level (ALS extracts from 93R30B; ratio of I50's for the resistant (93R30B, heterozygous F1) and sensitive (Rel-1) lines): 1750 fold; resistance of the ALS enzyme (ALS enzyme from Sur): 1 X; resistance of the ALS enzyme (ALS enzyme from Sir-13): 40 X; cell survival (sensitive cells): all sensitive cells died |
| Cc1cc(C)nc(NC(=O)NS(=O)(=O)c2ccccc2C(=O)O)n1 [Sulfometuron] |  |  |  |  |  | 0.2 | 1 | 23 | 4 |  |  |
| Imazamethabenzmethyl | > 125 |  |  | 25 |  |  |  |  |  |  | IC50 (93R30B [1]): > 100000 nM; IC50 (EL-49): 20000 nM; IC50 (Rel-1 [2]): 800 nM |

From patent EP0960190B1, “IMI[…] RESISTANT SUGAR BEET PLANTS” (Michigan State University, priority 1996, dated 1998)
